For this data set, the system named is human hepatocyte growth factor receptor mRNA.
As to “ISIS 155103: 2′-MOE gapmer, phosphorothioate backbone, sequence tgggaagctgatacttcata (antisense TGGGAAGCTGATACTTCATA; all phosphorothioate, sugars by position and methylation of C not given here; 2'-MOE gapmer)”, the “inhibition of human hepatocyte growth factor receptor expression” value (“inhibition” below) was “at least 35%”.
As for “ISIS 155105: 2′-MOE gapmer, phosphorothioate backbone, sequence atcaaagtatttggaaagga (antisense ATCAAAGTATTTGGAAAGGA; all phosphorothioate, sugars by position and methylation of C not given here; 2'-MOE gapmer)”, the entry is “at least 35%”.
As for “ISIS 209521: 2′-MOE gapmer, phosphorothioate backbone, sequence ggaaccagtggagaagtcag (antisense GGAACCAGTGGAGAAGTCAG; all phosphorothioate, sugars by position and methylation of C not given here; 2'-MOE gapmer)”, the entry is “at least 35%”.
On to “ISIS 209526: 2′-MOE gapmer, phosphorothioate backbone, sequence ttgatagggaatgcacacat (antisense TTGATAGGGAATGCACACAT; all phosphorothioate, sugars by position and methylation of C not given here; 2'-MOE gapmer)”, for which the “inhibition” value is reported as “at least 35%”.
On to “ISIS 155101: 2′-MOE gapmer, phosphorothioate backbone, sequence ttcagccacaggaaaaaccc (antisense TTCAGCCACAGGAAAAACCC; all phosphorothioate, sugars by position and methylation of C not given here; 2'-MOE gapmer)”, for which the “inhibition” value is listed as “at least 35%”.
As for “ISIS 155107: 2′-MOE gapmer, phosphorothioate backbone, sequence tccgcggtgaagttgggaag (antisense TCCGCGGTGAAGTTGGGAAG; all phosphorothioate, sugars by position and methylation of C not given here; 2'-MOE gapmer)”, the “inhibition” value was “at least 35%”.
Next, “ISIS 155128: 2′-MOE gapmer, phosphorothioate backbone, sequence actgtgaatttttcatccag (antisense ACTGTGAATTTTTCATCCAG; all phosphorothioate, sugars by position and methylation of C not given here; 2'-MOE gapmer)”: “at least 35%”.
As for “ISIS 155109: 2′-MOE gapmer, phosphorothioate backbone, sequence agctcgctgttcaatttcag (antisense AGCTCGCTGTTCAATTTCAG; all phosphorothioate, sugars by position and methylation of C not given here; 2'-MOE gapmer)”, the entry is “at least 35%”; as for “ISIS 209542: 2′-MOE gapmer, phosphorothioate backbone, sequence cttgcttccactaaaaatga (antisense CTTGCTTCCACTAAAAATGA; all phosphorothioate, sugars by position and methylation of C not given here; 2'-MOE gapmer)”, “at least 35%”; as for “ISIS 155118: 2′-MOE gapmer, phosphorothioate backbone, sequence catccagcatacagtttctt (antisense CATCCAGCATACAGTTTCTT; all phosphorothioate, sugars by position and methylation of C not given here; 2'-MOE gapmer)”, “at least 35%”.
Regarding “ISIS 155115: 2′-MOE gapmer, phosphorothioate backbone, sequence agttccttcctgcttcatgc (antisense AGTTCCTTCCTGCTTCATGC; all phosphorothioate, sugars by position and methylation of C not given here; 2'-MOE gapmer)”, the “inhibition” value is “at least 35%”.
Turning to “ISIS 155110: 2′-MOE gapmer, phosphorothioate backbone, sequence tcgggacactaactgaattc (antisense TCGGGACACTAACTGAATTC; all phosphorothioate, sugars by position and methylation of C not given here; 2'-MOE gapmer)”, the “inhibition” value is on record as “at least 35%”.
“ISIS 209530: 2′-MOE gapmer, phosphorothioate backbone, sequence ttacaggatccacataggag (antisense TTACAGGATCCACATAGGAG; all phosphorothioate, sugars by position and methylation of C not given here; 2'-MOE gapmer)”: the “inhibition” value is “at least 35%”.
Consider “ISIS 155099: 2′-MOE gapmer, phosphorothioate backbone, sequence caggtttttcccaacacctg (antisense CAGGTTTTTCCCAACACCTG; all phosphorothioate, sugars by position and methylation of C not given here; 2'-MOE gapmer)”, for which the “inhibition” value is “at least 35%”.
In the case of “ISIS 209541: 2′-MOE gapmer, phosphorothioate backbone, sequence accaagtactgtaagagagg (antisense ACCAAGTACTGTAAGAGAGG; all phosphorothioate, sugars by position and methylation of C not given here; 2'-MOE gapmer)”, the “inhibition” value was “at least 35%”.
Turning to “ISIS 209522: 2′-MOE gapmer, phosphorothioate backbone, sequence agaggtttatctttcggtgc (antisense AGAGGTTTATCTTTCGGTGC; all phosphorothioate, sugars by position and methylation of C not given here; 2'-MOE gapmer)”, the “inhibition” value was “at least 35%”.
For “ISIS 209537: 2′-MOE gapmer, phosphorothioate backbone, sequence agaggtttatctgccaaaac (antisense AGAGGTTTATCTGCCAAAAC; all phosphorothioate, sugars by position and methylation of C not given here; 2'-MOE gapmer)”, the “inhibition” value is “at least 35%”.
Turning to “ISIS 209540: 2′-MOE gapmer, phosphorothioate backbone, sequence cacatcccttgtaagttgga (antisense CACATCCCTTGTAAGTTGGA; all phosphorothioate, sugars by position and methylation of C not given here; 2'-MOE gapmer)”, the “inhibition” value is given as “at least 35%”.

Source of the values: US20040102622A1, “Modulation of hepatocyte growth factor receptor expression” (Isis Pharmaceuticals Inc., priority 2002, published 2004).
